Laboratory results from ChEMBL document CHEMBL4419178, “Yap1 inhibitors that target the interaction of yap1 with oct4” (2018).
Activity calls are given as the source filed them. The rule behind the calls is not given here.

How the values were obtained:
[1] = target: Transcriptional coactivator YAP1 (Homo sapiens) (UniProt P46937); assay: Inhibition of YAP1 (unknown origin) assessed as disruption in YAP1/OCT4 interaction at 5 uM by ELISA relative to control
[2] = target: Transcriptional coactivator YAP1 (Homo sapiens) (UniProt P46937); assay: Inhibition of YAP1 (unknown origin) assessed as disruption in YAP1/OCT4 interaction at 50 uM by cell based assay
[3] = target: Transcriptional coactivator YAP1 (Homo sapiens) (UniProt P46937); assay: Inhibition of YAP1 (unknown origin) assessed as disruption in YAP1/OCT4 interaction at 10 uM by ELISA relative to control
[4] = test system: NCI-H1650; assay: Inhibition of self-renewal capacity in stem-like side-population cells of human NCI-H1650 cells assessed as reduction in number of spheres at 5 to 50 uM incubated for 10 days by sphere formation assay; assay type: functional, cell-based
[5] = target: Transcriptional coactivator YAP1 (Homo sapiens) (UniProt P46937); assay: Inhibition of YAP1 in human A549 cells assessed as disruption in YAP1/OCT4 co-localization at 25 uM incubated for 48 hrs by double immunofluorescence based assay; assay type: cell-based
[6] = test system: NCI-H1650; assay: Cytotoxicity in human NCI-H1650 cells assessed as induction of cell killing in presence of cancer associated fibroblasts at 20 to 50 uM incubated for 24 to 48 hrs by cytotracker-red/green dye staining based immunofluorescence microscopy; assay type: functional
[7] = Cytotoxicity in human cancer associated fibroblasts at 20 to 50 uM incubated for 24 to 48 hrs by cytotracker-red/green dye staining based immunofluorescence microscopy
[8] = test system: NCI-H1650; assay: Inhibition of self-renewal capacity in stem-like side-population cells of human NCI-H1650 cells assessed as reduction in number of spheres at 50 uM incubated for 10 days by sphere formation assay; assay type: functional, cell-based
[9] = test system: NCI-H1650; assay: Inhibition of self-renewal capacity in stem-like side-population cells of human NCI-H1650 cells assessed as reduction in number of spheres at 1 to 20 uM incubated for 10 days by sphere formation assay; assay type: functional, cell-based
[10] = test system: NCI-H1650; assay: Inhibition of adherence-independent cell growth in human NCI-H1650 cells at 5 uM incubated for 33 days; assay type: functional, cell-based
[11] = test system: NCI-H1650; assay: Inhibition of adherence-independent cell growth in human NCI-H1650 cells at 10 uM incubated for 33 days; assay type: functional, cell-based
[12] = test system: NCI-H146; assay: Inhibition of self-renewal capacity in methotrexate insensitive stem-like side-population cells of human NCI-H146 cells assessed as reduction in number of spheres at 2 uM incubated for 3 days after 7 days methotrexate exposure by sphere formation assay; assay type: functional
[13] = test system: NCI-H1975; assay: Cytotoxicity in gefitinib and erlotinib resistant human NCI-H1975 cells assessed as reduction in cell viability at 1 to 10 uM incubated for 72 hrs by MTT assay; assay type: functional, cell-based
[14] = target: Transcriptional coactivator YAP1 (Homo sapiens) (UniProt P46937); assay: Inhibition of YAP1 in human NCI-H1650 cells assessed as suppression of Sox2 mRNA expression at 5 to 10 uM incubated for 72 hrs by RT-PCR method; assay type: cell-based
[15] = target: Transcriptional coactivator YAP1 (Homo sapiens) (UniProt P46937); assay: Inhibition of YAP1 in human NCI-H1703 cells assessed as suppression of Sox2 mRNA expression at 5 to 10 uM incubated for 72 hrs by RT-PCR method; assay type: cell-based
[16] = target: Transcriptional coactivator YAP1 (Homo sapiens) (UniProt P46937); assay: Inhibition of YAP1 in human NCI-H146 cells assessed as suppression of Sox2 mRNA expression at 5 to 10 uM incubated for 72 hrs by RT-PCR method; assay type: cell-based
[17] = test system: NCI-H1650; assay: Effect on expression of Oct4 mRNA expression in human NCI-H1650 cells at 5 to 10 uM incubated for 72 hrs by RT-PCR method; assay type: cell-based; settings: nci-h1650, 72 h
[18] = test system: NCI-H1650; assay: Effect on expression of Nanog mRNA expression in human NCI-H1650 cells at 5 to 10 uM incubated for 72 hrs by RT-PCR method; assay type: cell-based; settings: nci-h1650, 72 h
[19] = test system: NCI-H1703; assay: Effect on expression of Oct4 mRNA expression in human NCI-H1703 cells at 5 to 10 uM incubated for 72 hrs by RT-PCR method; assay type: cell-based; settings: nci-h1703, 72 h
[20] = test system: NCI-H1703; assay: Effect on expression of Nanog mRNA expression in human NCI-H1703 cells at 5 to 10 uM incubated for 72 hrs by RT-PCR method; assay type: cell-based; settings: nci-h1703, 72 h
[21] = test system: NCI-H146; assay: Effect on expression of Oct4 mRNA expression in human NCI-H146 cells at 5 to 10 uM incubated for 72 hrs by RT-PCR method; assay type: cell-based; settings: nci-h146, 72 h
[22] = test system: NCI-H146; assay: Effect on expression of Nanog mRNA expression in human NCI-H146 cells at 5 to 10 uM incubated for 72 hrs by RT-PCR method; assay type: cell-based; settings: nci-h146, 72 h
[23] = target: Transcriptional coactivator YAP1 (Homo sapiens) (UniProt P46937); assay: Inhibition of YAP1 in human NCI-H1650 cells assessed as suppression of HK2 mRNA expression at 5 to 10 uM incubated for 72 hrs by RT-PCR method; assay type: cell-based
[24] = target: Transcriptional coactivator YAP1 (Homo sapiens) (UniProt P46937); assay: Inhibition of YAP1 in human NCI-H1650 cells assessed as suppression of PDK2 mRNA expression at 5 to 10 uM incubated for 72 hrs by RT-PCR method; assay type: cell-based
[25] = target: Transcriptional coactivator YAP1 (Homo sapiens) (UniProt P46937); assay: Inhibition of YAP1 in human NCI-H1703 cells assessed as suppression of HK2 mRNA expression at 5 to 10 uM incubated for 72 hrs by RT-PCR method; assay type: cell-based
[26] = target: Transcriptional coactivator YAP1 (Homo sapiens) (UniProt P46937); assay: Inhibition of YAP1 in human NCI-H1703 cells assessed as suppression of PDK2 mRNA expression at 5 to 10 uM incubated for 72 hrs by RT-PCR method; assay type: cell-based
[27] = target: Transcriptional coactivator YAP1 (Homo sapiens) (UniProt P46937); assay: Inhibition of YAP1 in human NCI-H146 cells assessed as suppression of HK2 mRNA expression at 5 to 10 uM incubated for 72 hrs by RT-PCR method; assay type: cell-based
[28] = target: Transcriptional coactivator YAP1 (Homo sapiens) (UniProt P46937); assay: Inhibition of YAP1 in human NCI-H146 cells assessed as suppression of PDK2 mRNA expression at 5 to 10 uM incubated for 72 hrs by RT-PCR method; assay type: cell-based
[29] = target: Transcriptional coactivator YAP1 (Homo sapiens) (UniProt P46937); assay: Inhibition of YAP1 in human NCI-H1650 cells assessed as suppression of PD-L1 mRNA expression at 5 to 10 uM incubated for 72 hrs by RT-PCR method; assay type: cell-based
[30] = target: Transcriptional coactivator YAP1 (Homo sapiens) (UniProt P46937); assay: Inhibition of YAP1 in human NCI-H1703 cells assessed as suppression of PD-L1 mRNA expression at 5 to 10 uM incubated for 72 hrs by RT-PCR method; assay type: cell-based
[31] = test system: NCI-H1650; assay: Inhibition of YAP1/TEAD2 interaction in human NCI-H1650 cells assessed as suppression of CTGF mRNA expression at 5 to 10 uM incubated for 72 hrs by RT-PCR method; assay type: cell-based
[32] = test system: NCI-H1703; assay: Inhibition of YAP1/TEAD2 interaction in human NCI-H1703 cells assessed as suppression of CTGF mRNA expression at 5 to 10 uM incubated for 72 hrs by RT-PCR method; assay type: cell-based
[33] = target: Transcriptional coactivator YAP1 (Homo sapiens) (UniProt P46937); assay: Inhibition of YAP1 in human NCI-H1650 cells assessed as suppression of fibronectin mRNA expression at 5 to 10 uM incubated for 72 hrs by RT-PCR method; assay type: cell-based
[34] = target: Transcriptional coactivator YAP1 (Homo sapiens) (UniProt P46937); assay: Inhibition of YAP1 in human NCI-H1650 cells assessed as suppression of vimentin mRNA expression at 5 to 10 uM incubated for 72 hrs by RT-PCR method; assay type: cell-based
[35] = target: Transcriptional coactivator YAP1 (Homo sapiens) (UniProt P46937); assay: Inhibition of YAP1 in human NCI-H1703 cells assessed as suppression of fibronectin mRNA expression at 5 to 10 uM incubated for 72 hrs by RT-PCR method; assay type: cell-based
[36] = target: Transcriptional coactivator YAP1 (Homo sapiens) (UniProt P46937); assay: Inhibition of YAP1 in human NCI-H1703 cells assessed as suppression of vimentin mRNA expression at 5 to 10 uM incubated for 72 hrs by RT-PCR method; assay type: cell-based
[37] = test system: NCI-H1703; assay: Inhibition of adherence-independent cell growth in human NCI-H1703 cells at 10 uM incubated for 33 days; assay type: functional, cell-based
[38] = test system: NCI-H1703; assay: Inhibition of adherence-independent cell growth in human NCI-H1703 cells at 5 uM incubated for 33 days; assay type: functional, cell-based

Chain of Transcriptional coactivator YAP1 (Homo sapiens) (P46937 whole entry): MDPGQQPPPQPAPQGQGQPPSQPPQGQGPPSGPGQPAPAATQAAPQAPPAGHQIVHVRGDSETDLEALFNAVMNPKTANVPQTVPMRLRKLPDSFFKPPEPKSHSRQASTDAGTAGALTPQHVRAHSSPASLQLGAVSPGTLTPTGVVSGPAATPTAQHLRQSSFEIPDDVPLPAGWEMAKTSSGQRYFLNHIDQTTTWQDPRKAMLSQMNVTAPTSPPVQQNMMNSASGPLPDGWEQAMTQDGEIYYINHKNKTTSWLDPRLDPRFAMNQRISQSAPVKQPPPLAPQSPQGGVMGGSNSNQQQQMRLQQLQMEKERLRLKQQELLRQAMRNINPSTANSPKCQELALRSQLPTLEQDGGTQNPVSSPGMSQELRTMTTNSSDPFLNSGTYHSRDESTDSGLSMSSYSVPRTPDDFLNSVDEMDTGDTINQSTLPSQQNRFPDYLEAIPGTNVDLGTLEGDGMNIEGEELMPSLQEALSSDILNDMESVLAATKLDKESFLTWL

O=C(CC1CCN(C(=O)CCc2ccccc2)CC1)N[C@@H](Cc1ccc(OCc2ccccc2)cc1)C(=O)NC1CCCCC1
inhibition [1]: 90%
inhibition [2]: 70%

COC(=O)[C@H](Cc1ccc(OCc2ccccc2)cc1)NC(=O)CC1CCN(C(=O)c2ccccc2)CC1
inhibition [3]: 75%
inhibition [2]: 84%
inhibition [4]: Active

COc1cc2c(cc1OC)[N+]([O-])=C(c1ccccc1)C2=O
inhibition [5]: Active
Activity [6]: Active
Activity [7]: Non-Toxic

O=C1NC2C(O)C(O)C(O)C(O)C2c2cc3c(c(O)c21)OCO3 (centres undefined)
inhibition [8]: Active

COC(=O)[C@H](Cc1ccc(OCc2ccccc2)cc1)NC(=O)CC1CCN(C(=O)CC(c2ccccc2)c2ccccc2)CC1
inhibition [9]: Active

COC(=O)[C@H](Cc1ccc(OCc2ccccc2)cc1)NC(=O)CC1CCN(C(=O)CCc2ccccc2C)CC1
inhibition [9]: Active

CC1Oc2cc3c(-c4c(O)cc(O)c5c(O)c6c(cc45)OC(C)C(C)C6=O)c(O)cc(O)c3c(O)c2C(=O)C1C (centres undefined)
inhibition [8]: Active
Activity [6]: Active
Activity [7]: Non-Toxic

O=[N+]([O-])c1nc[nH]c1/C=C/c1cccc(F)c1
inhibition [10]: Active
inhibition [11]: Active
inhibition [12]: Active
Activity [13]: Active
inhibition [14]: Active
inhibition [15]: Active
inhibition [16]: Active
Activity [17]: Non-Toxic
Activity [18]: Non-Toxic
Activity [19]: Non-Toxic
Activity [20]: Non-Toxic
Activity [21]: Non-Toxic
Activity [22]: Non-Toxic
inhibition [23]: Active
inhibition [24]: Active
inhibition [25]: Active
inhibition [26]: Active
inhibition [27]: Active
inhibition [28]: Active
inhibition [29]: Active
inhibition [30]: Active
inhibition [31]: inactive
inhibition [32]: inactive
inhibition [33]: Active
inhibition [34]: Active
inhibition [35]: Active
inhibition [36]: Active
inhibition [37]: Active
inhibition [38]: Active

O=[N+]([O-])c1[nH]cnc1/C=C/c1ccccc1
inhibition [5]: Active
inhibition [8]: Active
inhibition [4]: Active
Activity [6]: Active
Activity [7]: Non-Toxic

CC(C)(C)OC(=O)N1CCC(CC(=O)N[C@@H](Cc2ccc(OCc3ccccc3)cc2)C(=O)NC2CCCCC2)CC1
inhibition [1]: 75%
inhibition [2]: 71%

CCOC(=O)/C(C#N)=C/c1c[nH]c2ccccc12
inhibition [8]: Active

COC(=O)[C@H](Cc1ccc(O)cc1)NC(=O)CC1CCN(C(=O)CCc2ccccc2)CC1
inhibition [1]: 97%
inhibition [2]: > 77%

COC(=O)[C@H](Cc1ccc(OCc2ccccc2)cc1)NC(=O)CC1CCN(C(=O)CCc2cccc(C)c2)CC1
inhibition [9]: Active
